Measured values published in the supplement of paper PMC10883282.

Legend:
Assay in all cases: relative viability vs DMSO control (72 h) (fraction); higher = more viable cells
[1] = system: HS729
In short: (§1)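 Relative viability was measured with ATPLite and expressed as percent growth, averaged across up to triplicate wells. Sarcoma cell lines had been seeded in 384-well plates to reach 80–90% confluence, dosed after 24 h, and incubated 72 h at 37 °C, 5% CO2. All data were rescaled on a scale where 1 is full and 0 is none.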

[2] = system: SW684
In short: as §1

[3] = system: SK-LMS-1
In short: as §1

[4] = system: A204
In short: as §1

[5] = system: SYO-1
In short: as §1

[6] = system: KHOS-NP
In short: as §1

[7] = system: SW872
In short: as §1

[8] = system: SK-ES-1
In short: as §1

[9] = system: G401
In short: as §1

[10] = system: VA-ES-BJ
In short: as §1

[11] = system: RD
In short: as §1

[12] = system: MES-SA
In short: as §1

CS(=O)(=O)CCNCc1ccc(-c2ccc3ncnc(Nc4ccc(OCc5cccc(F)c5)c(Cl)c4)c3c2)o1 [Lapatinib]
Settings | relative viability
[1], 0.00017 µM | 0.93
[1], 0.00051 µM | 0.935
[1], 0.00152 µM | 0.873
[1], 0.00457 µM | 0.878
[1], 0.01372 µM | 0.939
[1], 0.04115 µM | 0.921
[1], 0.1235 µM | 0.93
[1], 0.3704 µM | 0.887
[1], 1.111 µM | 0.879
[1], 3.333 µM | 0.794
[1], 10 µM | 0.134
[2], 0.00017 µM | 1.15
[2], 0.00051 µM | 1.13
[2], 0.00152 µM | 1.14
[2], 0.00457 µM | 1.13
[2], 0.01372 µM | 1.13
[2], 0.04115 µM | 1.17
[2], 0.1235 µM | 1.15
[2], 0.3704 µM | 1.14
[2], 1.111 µM | 1.19
[2], 3.333 µM | 1.15
[2], 10 µM | 0.707
[3], 0.00017 µM | 1.1
[3], 0.00051 µM | 1.09
[3], 0.00152 µM | 1.08
[3], 0.00457 µM | 1.13
[3], 0.01372 µM | 1.17
[3], 0.04115 µM | 1.15
[3], 0.1235 µM | 1.07
[3], 0.3704 µM | 1.1
[3], 1.111 µM | 1.11
[3], 3.333 µM | 0.824
[3], 10 µM | 0.361
[4], 0.00017 µM | 1.06
[4], 0.00051 µM | 1.07
[4], 0.00152 µM | 1.06
[4], 0.00457 µM | 1.07
[4], 0.01372 µM | 1.06
[4], 0.04115 µM | 1.08
[4], 0.1235 µM | 1.07
[4], 0.3704 µM | 1.09
[4], 1.111 µM | 1.05
[4], 3.333 µM | 0.701
[4], 10 µM | 0.0212
[5], 0.00017 µM | 0.955
[5], 0.00051 µM | 0.93
[5], 0.00152 µM | 0.958
[5], 0.00457 µM | 0.959
[5], 0.01372 µM | 0.936
[5], 0.04115 µM | 0.949
[5], 0.1235 µM | 0.934
[5], 0.3704 µM | 0.944
[5], 1.111 µM | 0.912
[5], 3.333 µM | 0.637
[5], 10 µM | 0.165
[6], 0.00017 µM | 1.059
[6], 0.00051 µM | 1.055
[6], 0.00152 µM | 1.05
[6], 0.00457 µM | 1.07
[6], 0.01372 µM | 1.055
[6], 0.04115 µM | 1.053
[6], 0.1235 µM | 1.06
[6], 0.3704 µM | 1.1
[6], 1.111 µM | 1.07
[6], 3.333 µM | 1.02
[6], 10 µM | 0.93
[7], 0.00017 µM | 1.03
[7], 0.00051 µM | 1.03
[7], 0.00152 µM | 1.03
[7], 0.00457 µM | 1.02
[7], 0.01372 µM | 1.01
[7], 0.04115 µM | 1.05
[7], 0.1235 µM | 1.05
[7], 0.3704 µM | 1.05
[7], 1.111 µM | 1.04
[7], 3.333 µM | 0.895
[7], 10 µM | 0.0477
[8], 0.00017 µM | 1.05
[8], 0.00051 µM | 1.04
[8], 0.00152 µM | 1.02
[8], 0.00457 µM | 0.98
[8], 0.01372 µM | 1.06
[8], 0.04115 µM | 0.985
[8], 0.1235 µM | 1.02
[8], 0.3704 µM | 1.02
[8], 1.111 µM | 0.983
[8], 3.333 µM | 0.772
[8], 10 µM | 0.0529
[9], 0.00017 µM | 1.01
[9], 0.00051 µM | 1.01
[9], 0.00152 µM | 1.01
[9], 0.00457 µM | 1.01
[9], 0.01372 µM | 1.02
[9], 0.04115 µM | 1.04
[9], 0.1235 µM | 1.01
[9], 0.3704 µM | 0.966
[9], 1.111 µM | 1.02
[9], 3.333 µM | 1.01
[9], 10 µM | 0.789
[10], 0.00017 µM | 1.019
[10], 0.00051 µM | 1.01
[10], 0.00152 µM | 1.02
[10], 0.00457 µM | 1.03
[10], 0.01372 µM | 1.01
[10], 0.04115 µM | 0.992
[10], 0.1235 µM | 0.993
[10], 0.3704 µM | 0.979
[10], 1.111 µM | 0.985
[10], 3.333 µM | 0.927
[10], 10 µM | 0.451
[11], 0.00017 µM | 1.09
[11], 0.00051 µM | 1.1
[11], 0.00152 µM | 1.09
[11], 0.00457 µM | 1.11
[11], 0.01372 µM | 1.08
[11], 0.04115 µM | 1.12
[11], 0.1235 µM | 1.09
[11], 0.3704 µM | 1.1
[11], 1.111 µM | 1.1
[11], 3.333 µM | 0.98
[11], 10 µM | 0.0224
[12], 0.00017 µM | 0.933
[12], 0.00051 µM | 0.918
[12], 0.00152 µM | 0.904
[12], 0.00457 µM | 0.912
[12], 0.01372 µM | 0.923
[12], 0.04115 µM | 0.931
[12], 0.1235 µM | 0.945
[12], 0.3704 µM | 0.9335
[12], 1.111 µM | 0.915
[12], 3.333 µM | 0.683
[12], 10 µM | 0.0484
